# Measured values published in PubChem BioAssay (NCI).
#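 Tested at 5 concentrations; 48 h exposure; 96-well plates; endpoints linearly interpolated, else capped at highest concentration. TGI: concentration producing complete growth inhibition.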
# Legend:
# Assay in all cases: growth of human tumour cells (NCI), 48 h
# [1] = tested on: 786-0 renal
# [2] = tested on: A498 renal
# [3] = tested on: ACHN renal
# [4] = tested on: BT-549 breast
# [5] = tested on: CAKI-1 renal
# [6] = tested on: COLO 205 colon
# [7] = tested on: DU-145 prostate
# [8] = tested on: EKVX NSCLC
# [9] = tested on: HCC-2998 colon
# [10] = tested on: HCT-15 colon
# [11] = tested on: HL-60(TB) leukemia
# [12] = tested on: HOP-62 NSCLC
# [13] = tested on: HOP-92 NSCLC
# [14] = tested on: HS 578T breast
# [15] = tested on: HT29 colon
# [16] = tested on: IGROV1 ovarian
# [17] = tested on: M14 melanoma
# [18] = tested on: MALME-3M melanoma
# [19] = tested on: MDA-MB-231 breast
# [20] = tested on: MDA-MB-435
# [21] = tested on: MOLT-4 leukemia
# [22] = tested on: NCI-H226 lung
# [23] = tested on: NCI-H23 lung
# [24] = tested on: NCI-H460 lung
# [25] = tested on: NCI-H522 lung
# [26] = tested on: NCI/ADR-RES ovarian
# [27] = tested on: OVCAR-3 ovarian
# [28] = tested on: OVCAR-4 ovarian
# [29] = tested on: OVCAR-5 ovarian
# [30] = tested on: OVCAR-8 ovarian
# [31] = tested on: PC-3 prostate
# [32] = tested on: RPMI-8226 leukemia
# [33] = tested on: RXF 393 renal
# [34] = tested on: SF-268 CNS
# [35] = tested on: SF-295 CNS
# [36] = tested on: SF-539 CNS
# [37] = tested on: SK-MEL-2 melanoma
# [38] = tested on: SK-MEL-28 melanoma
# [39] = tested on: SK-MEL-5 melanoma
# [40] = tested on: SK-OV-3 ovarian
# [41] = tested on: SN12C renal
# [42] = tested on: SNB-19 CNS
# [43] = tested on: SNB-75 CNS
# [44] = tested on: SW-620 colon
# [45] = tested on: T-47D breast
# [46] = tested on: TK-10 renal
# [47] = tested on: U251 CNS
# [48] = tested on: UACC-257 melanoma
# [49] = tested on: UACC-62 melanoma
# [50] = tested on: UO-31 renal
smiles,measurement,setting,value
Cc1cc(=O)[nH]c(S(=O)(=O)NC(=S)Nc2ccc(Br)cc2)n1,TGI,[1],> 100 µM
same,TGI,[2],> 100 µM
same,TGI,[3],> 100 µM
same,TGI,[4],> 100 µM
same,TGI,[5],> 100 µM
same,TGI,[6],> 100 µM
same,TGI,[7],> 100 µM
same,TGI,[8],> 100 µM
same,TGI,[9],> 100 µM
same,TGI,[10],> 100 µM
same,TGI,[11],> 100 µM
same,TGI,[12],> 100 µM
same,TGI,[13],> 100 µM
same,TGI,[14],> 100 µM
same,TGI,[15],> 100 µM
same,TGI,[16],> 100 µM
same,TGI,[17],> 100 µM
same,TGI,[18],> 100 µM
same,TGI,[19],> 100 µM
same,TGI,[20],> 100 µM
same,TGI,[21],> 100 µM
same,TGI,[22],> 100 µM
same,TGI,[23],> 100 µM
same,TGI,[24],> 100 µM
same,TGI,[25],70 µM
same,TGI,[26],> 100 µM
same,TGI,[27],> 100 µM
same,TGI,[28],> 100 µM
same,TGI,[29],> 100 µM
same,TGI,[30],> 100 µM
same,TGI,[31],> 100 µM
same,TGI,[32],> 100 µM
same,TGI,[33],> 100 µM
same,TGI,[34],> 100 µM
same,TGI,[35],> 100 µM
same,TGI,[36],> 100 µM
same,TGI,[37],> 100 µM
same,TGI,[38],> 100 µM
same,TGI,[39],> 100 µM
same,TGI,[40],> 100 µM
same,TGI,[41],> 100 µM
same,TGI,[42],> 100 µM
same,TGI,[43],> 100 µM
same,TGI,[44],> 100 µM
same,TGI,[45],> 100 µM
same,TGI,[46],> 100 µM
same,TGI,[47],> 100 µM
same,TGI,[48],> 100 µM
same,TGI,[49],> 100 µM
same,TGI,[50],> 100 µM
